The source of these data is article PMC12051620, “Molecular basis underlying the specificity of an antagonist AA92593 for mammalian melanopsins” (The Journal of Biological Chemistry, 2025).

This experiment addresses T1, mouse melanopsin (Mus musculus, UniProt Q9QXZ9).
T1 construct: the C-terminal amino acid residues (94, 140, 200, 214, 296, and 308 residues); expressed in transfected cells; host or cells: COS-1
Put plainly: GsX GloSensor assay with exogenous Gsα WT. The class given is cell-based. To be noted: 16.7 μM AA92593; COS-1 cells. The source says:
Previous studies of human and mouse melanopsins reported that these melanopsins can activate not only Gq but Gs and Gi ([20], [21], [22]). Thus, we assessed the effect of AA92593 on Gsα WT or Gsα/i11 (with 11 C-terminal sequence of Giα) using the GsX GloSensor assay. In agreement with the promiscuous G protein-coupling of melanopsins, we observed light-dependent increase of GloSensor luminescence in COS-1 cells expressing Gsα or Gsα/i11 with human/mouse melanopsins (Fig. 1, G–J).
For GloSensor assay, opsins, GloSensor assay sensor (coded by pGlo-22F), and NanoBiT-tagged G proteins were transiently expressed in COS-1 cells (kindly provided from Dr David Farrens, Oregon Health and Science University) using PEI as described previously ([24], [52]). […] For GFP-fluorescence microscopy, a 35-mm cell culture dish (IWAKI) was transfected with 2 μg melanopsin-GFP plasmid and 8 μg PEI in 400 μl Opti-mem and 1.2 ml D-MEM. […]
The transfected COS-1 cells were incubated at 37 °C, 5% CO2 for 2 days, and the medium was aspirated and exchanged with 50 μl of HBSS (145 mM NaCl, 10 mM D-glucose, 5 mM KCl, 1 mM MgCl2, 1.7 mM CaCl2, 1.5 mM NaHCO3, 10 mM Hepes, pH 7.4), containing 33.3, 20, 10, 2, 0.2, 0.02, 0.002, or 0 μM AA92593, 0.5% dimetyl sulfoxide (DMSO), and 4% (vol/vol) GloSensor cAMP reagent stock solution. […] Luminescence was measured using GM-2000 or GM-3510 microplate reader (Promega). […]

Each structure is given as a SMILES string.

T1 sequence (Q9QXZ9 1-381 limits assumed): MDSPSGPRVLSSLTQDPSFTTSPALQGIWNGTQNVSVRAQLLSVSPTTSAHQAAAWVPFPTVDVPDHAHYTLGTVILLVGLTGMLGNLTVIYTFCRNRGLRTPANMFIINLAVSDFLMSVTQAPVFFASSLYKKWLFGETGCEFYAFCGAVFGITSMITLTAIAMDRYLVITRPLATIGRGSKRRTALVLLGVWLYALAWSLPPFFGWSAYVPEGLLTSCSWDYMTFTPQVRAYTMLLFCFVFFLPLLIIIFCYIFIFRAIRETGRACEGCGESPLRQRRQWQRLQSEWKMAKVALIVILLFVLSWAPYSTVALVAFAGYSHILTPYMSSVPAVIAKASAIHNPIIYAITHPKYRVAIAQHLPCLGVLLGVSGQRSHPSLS

For the compound `COc1ccc(S(=O)(=O)N2CCCCC2)cc1C` [AA92593], the “effect on melanopsin-induced cAMP responses via exogenous Gsα” value is given as “can suppress”.
